In ChEMBL document CHEMBL4765387, “Design of G-protein-coupled bile acid receptor 1 (GPBAR1, TGR5) soft drugs with reduced gallbladder-filling effects” (Eur J Med Chem, 2020):

How the values were obtained:
[1] = Stability of the compound in mouse plasma assessed as parent compound remaining at 1 uM measured after 5 mins; assay type: ADME, cell-free; settings: read-out: Stabilty
[2] = Cmax in overnight-fasted ICR mouse systemic circulation at 50 mg/kg, po measured after 1 hr by LC-MS/MS analysis; assay type: ADME, organism-based; design: route oral, time 1 hrs, dose 50 mg/kg
[3] = Cmax in overnight-fasted ICR mouse systemic circulation assessed as 5-[3-(4-Cyclopropyl-3,4-dihydro-2H-quinoxaline-1-carbonyl)-pyridin-4-yloxy]-benzofuran-3-carboxylic acid at 50 mg/kg, po measured after 1 hr by LC-MS/MS analysis; assay type: ADME, organism-based; design: route oral, dose 50 mg/kg, time 1 hrs; settings: in vivo
[4] = Cmax in overnight-fasted ICR mouse gallbladder tissue assessed as 5-[3-(4-Cyclopropyl-3,4-dihydro-2H-quinoxaline-1-carbonyl)-pyridin-4-yloxy]-benzofuran-3-carboxylic acid at 50 mg/kg, po measured after 1 hr by LC-MS/MS analysis; assay type: ADME, organism-based, Gall bladder; design: route oral, time 1 hrs, dose 50 mg/kg; settings: in vivo
[5] = Cmax in overnight-fasted ICR mouse bile assessed as 5-[3-(4-Cyclopropyl-3,4-dihydro-2H-quinoxaline-1-carbonyl)-pyridin-4-yloxy]-benzofuran-3-carboxylic acid at 50 mg/kg, po measured after 1 hr by LC-MS/MS analysis; assay type: ADME, organism-based; design: route oral, time 1 hrs, dose 50 mg/kg; settings: in vivo
[6] = Peak drug concentration in overnight-fasted ICR mouse ileum at 50 mg/kg, po measured after 2 hr by LC-MS/MS analysis; assay type: ADME, organism-based; design: route oral, dose 50 mg/kg, time 2 hrs
[7] = Peak drug concentration in overnight-fasted ICR mouse colon at 50 mg/kg, po measured after 4 hr by LC-MS/MS analysis; assay type: ADME, organism-based; design: route oral, time 4 hrs, dose 50 mg/kg

**Q.** For `CCOC(=O)c1coc2cc(Cl)c(Oc3ccncc3C(=O)N3CCN(C4CC4)c4ccccc43)cc12`, which remaining at 5 min, 1 µM [1] is on record?
**A.** 92.4%

**Q.** For `CCCOC(=O)c1coc2ccc(Oc3ccncc3C(=O)N3CCN(C4CC4)c4ccccc43)cc12`, which remaining at 5 min, 1 µM [1] is on record?
**A.** 12.3%

**Q.** For `COC(=O)c1coc2ccc(Oc3ccncc3C(=O)N3CCN(C4CC4)c4ccccc43)cc12`, which remaining at 5 min, 1 µM [1] is on record?
**A.** 71%

**Q.** For `CCOC(=O)c1coc2ccc(Oc3ccncc3C(=O)N3CCN(C4CC4)c4ccccc43)cc12`, which remaining at 5 min, 1 µM [1] is on record?
**A.** 38.5%

**Q.** For `CCOCOC(=O)c1coc2ccc(Oc3ccncc3C(=O)N3CCN(C4CC4)c4ccccc43)cc12`, which Cmax [2] is on record?
**A.** 3 ng/mL

**Q.** And the Cmax [3]?
**A.** 80 ng/mL

**Q.** And the Cmax [4]?
**A.** 80 ng/mL

**Q.** And the Cmax [5]?
**A.** 80 ng/mL

**Q.** And the Cmax [6]?
**A.** 10200 ng/g

**Q.** And the Cmax [7]?
**A.** 2700 ng/g
